# Laboratory results: patent publication US20140336184A1, “METHOD TO ENHANCE COGNITION” (priority 2011, published 2014)
# Columns and labels:
# PKR [1] = target: T1, PKR (Rattus norvegicus, UniProt Q63184); settings: dose of 0.1 mg/kg i.p. (Ingrand et al., 2007); cited from earlier work
# T1 sequence (Q63184 1-513): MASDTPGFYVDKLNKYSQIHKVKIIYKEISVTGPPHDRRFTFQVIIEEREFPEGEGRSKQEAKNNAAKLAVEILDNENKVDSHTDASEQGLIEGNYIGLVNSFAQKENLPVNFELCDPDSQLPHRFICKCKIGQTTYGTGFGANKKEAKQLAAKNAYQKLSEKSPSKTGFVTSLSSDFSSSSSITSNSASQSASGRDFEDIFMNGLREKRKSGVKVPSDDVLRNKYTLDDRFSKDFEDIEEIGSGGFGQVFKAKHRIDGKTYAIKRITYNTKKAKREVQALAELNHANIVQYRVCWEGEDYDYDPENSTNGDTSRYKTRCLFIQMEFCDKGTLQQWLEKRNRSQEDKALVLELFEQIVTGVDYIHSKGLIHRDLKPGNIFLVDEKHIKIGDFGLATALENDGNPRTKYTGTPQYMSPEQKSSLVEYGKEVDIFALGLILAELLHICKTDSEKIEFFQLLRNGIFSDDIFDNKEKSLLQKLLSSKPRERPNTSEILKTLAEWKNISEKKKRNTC
# PKR [2] = target: T2, PKR (Homo sapiens, UniProt P19525); settings: Jammi et al., 2003; Shimazawa and Hara, 2006; cited from earlier work
# WT mice = test: Contextual and auditory fear conditioning; format: in vivo, mouse; settings: PKRi 0.1 mg/kg i.p. immediately after training, n=8
# Description: The experimenter was blind to the genotype for all behavioral tests. Fear conditioning was performed as previously described (Costa-Mattioli et al., 2007). Mice were first handled for 3-5 min for 3 days and then habituated to the conditioning chamber for 20 min for another 3 days. On the training day, after 2 min in the conditioning chamber, mice received a pairing of a tone (2800 Hz, 85 db, 30 s) with a co-terminating foot-shock (0.35 mA, 1 s), after which they remained in the chamber for two additional min and then were returned to their home cages. Mice were tested 24 hr after training for “freezing” (immobility with the exception of respiration) in response to the tone (in a chamber to which they had not been conditioned) and to the training context (training chamber).
# During testing for auditory fear conditioning, mice were placed in the chamber and freezing responses were recorded during the initial 2 min (pre-CS period) and during the last 3 min when the tone was played. Mice were returned to their cages 30 s after the end of the tone. […] For extinction trials, freezing in response to the conditioned context was assessed for 5 min, 24 hr, 48 hr, 72 hr and 96 hr after training and normalized to the amount of freezing obtained at 24 hr. For all tests, freezing behavior was determined at 5 s intervals during a 5 min period. […]
# adult WT mice = test: Video EEG recordings in freely moving mice; format: in vivo, mouse
# From the text: Pkr knockout (Pkr^−/−) mice (Abraham et al., 1999) were back-crossed for at least eight generations to 129SvEv mice. Mice were weaned at the third postnatal week and genotyped by PCR. Briefly, the mutant and corresponding WT alleles are detected by a four-primer PCR assay in which Oligo-1 (5′-GGAACITrGGAGCAATGGA-3′) and Oligo-2 (5′-[…]-3′) give a WT band of 225 base-pair fragment and Oligo-3 (5′-TGTTCTGTGGCTATCAGGG-3′) and Oligo-4 (5′-[…]-3′) give a 432 base-pair fragment from the deleted allele. eIF2α^+/S51A mice were previously described (Costa-Mattioli et al., 2007; Scheuner et al., 2001). All experiments were performed on 8-16 weeks old males. The mice were kept on a 12 h light/dark cycle, and the behavioral experiments were always conducted during the light phase of the cycle. The mice had access to food and water ad libitum, except during tests. […]
# PKRi (Calbiochem, San Diego), a potent ATP-binding-site-directed inhibitor of PKR which blocks PKR autophosphorylation (Jammi et al., 2003; Shimazawa and Hara, 2006), was prepared as a 20 mM stock solution in DMSO (dimethyl sufloxide). PKRi was freshly dissolved in saline and then injected intraperitoneally (i.p.) at a dose of 0.1 mg/kg and the EEG was recorded 1 hr after injection. A digital video camera simultaneously monitored behavior during the EEG recordings. […]
# [3] = test system: hippocampal slices from Pkr−/− mice; test: Field recording (population spikes) in CA1 of hippocampal slices; format: cell-based, mouse; settings: PKRi
# Description: Field recording: horizontal hippocampal slices ([…]) were cut from brains of WT or age-matched Pkr^−/− littermates in 4° C. artificial cerebrospinal fluid (ACSF) and kept in ACSF at room temperature for at least one hr before recording, as described (Zhu et al., 2005). Slices were maintained in an interface-type chamber perfused with oxygenated ACSF (95% O2 and 5% CO2) containing in mM: 124 NaCl, 2.0 KCl, 1.3 MgSO4, 2.5 CaCl2, 1.2 KH2PO4, 25 NaHCO3, and 10 glucose (2-3 ml/min). Bipolar stimulating electrodes were placed in the CA1 stratum radiatum to stimulate Schaffer collateral and commissural fibers. Field potentials were recorded using ACSF-filled micropipettes at 28-29° C. The recording electrodes were placed in the stratum radiatum for field excitatory postsynaptic potentials (fEPSPs), and stratum pyramidale for population spikes. The stimulus strength of the 0.1 ms pulses was adjusted to evoke 30-35% of maximum response for fEPSPs, and 50% of maximal response for population spikes. A stable baseline of responses was established for at least 30 min at 0.033 Hz. Tetanic LTP was induced by high-frequency stimulation in brief trains (100 Hz, 1 s), applied either as a single train or four trains separated by 5 min intervals. A short train consisted of 5 stimuli (100 Hz within-burst). […]
# [4] = test system: CA1 neurons in WT hippocampal slices; format: cell-based, mouse
# WT hippocampal slices = test: Tetanic LTP (E-LTP/L-LTP) in hippocampal slices; format: cell-based, mouse
# Description: (§1) Field recording: horizontal hippocampal slices ([…]) were cut from brains of WT or age-matched Pkr^−/− littermates in 4° C. artificial cerebrospinal fluid (ACSF) and kept in ACSF at room temperature for at least one hr before recording, as described (Zhu et al., 2005). Slices were maintained in an interface-type chamber perfused with oxygenated ACSF (95% O2 and 5% CO2) containing in mM: 124 NaCl, 2.0 KCl, 1.3 MgSO4, 2.5 CaCl2, 1.2 KH2PO4, 25 NaHCO3, and 10 glucose (2-3 ml/min). Bipolar stimulating electrodes were placed in the CA1 stratum radiatum to stimulate Schaffer collateral and commissural fibers. Field potentials were recorded using ACSF-filled micropipettes at 28-29° C. The recording electrodes were placed in the stratum radiatum for field excitatory postsynaptic potentials (fEPSPs), and stratum pyramidale for population spikes. The stimulus strength of the 0.1 ms pulses was adjusted to evoke 30-35% of maximum response for fEPSPs, and 50% of maximal response for population spikes. A stable baseline of responses was established for at least 30 min at 0.033 Hz. Tetanic LTP was induced by high-frequency stimulation in brief trains (100 Hz, 1 s), applied either as a single train or four trains separated by 5 min intervals. A short train consisted of 5 stimuli (100 Hz within-burst). When indicated, ACSF was supplemented with anisomycin (Calbiochem, Calif.), PKRi (Calbiochem, Calif.), bicuculline (Tocris) or diazepam (Sigma-Aldrich). It should be noted that the inventors used bicuculline free base which only blocks GABAA receptor rather than bicuculline-M (bicuculline methiodide, methobromide or methochloride) which in addition to GABAA receptor also blocks small conductance (SK) calcium-activated potassium channels (Debarbieux et al., 1998). […] To reduce day-to-day variations, whenever possible simultaneous recordings (in the same chamber) were obtained from slices from Pkr^−/− mice and WT littermates treated with drugs or vehicle. Statistical analysis was performed using t-test and two-way ANOVA. […]
# [5] = test system: CA1 neurons in Pkr−/− hippocampal slices; test: Whole-cell patch clamp recording of synaptic currents; format: cell-based, mouse; settings: PKRi
# [6] = test system: Pkr−/− hippocampal slices; format: cell-based, mouse
# Description: as §1
# PKR [7] = target: T2, PKR; settings: final concentration of 1 μM (Page et al., 2006; Wang et al., 2007); cited from earlier work
# [8] = test system: hippocampal slices from WT mice; test: Field recording (population spikes, fEPSPs) in CA1 of hippocampal slices; format: cell-based, mouse
# Description: Field recording: horizontal hippocampal slices ([…]) were cut from brains of WT or age-matched Pkr^−/− littermates in 4° C. artificial cerebrospinal fluid (ACSF) and kept in ACSF at room temperature for at least one hr before recording, as described (Zhu et al., 2005). Slices were maintained in an interface-type chamber perfused with oxygenated ACSF (95% O2 and 5% CO2) containing in mM: 124 NaCl, 2.0 KCl, 1.3 MgSO4, 2.5 CaCl2, 1.2 KH2PO4, 25 NaHCO3, and 10 glucose (2-3 ml/min). Bipolar stimulating electrodes were placed in the CA1 stratum radiatum to stimulate Schaffer collateral and commissural fibers. Field potentials were recorded using ACSF-filled micropipettes at 28-29° C. The recording electrodes were placed in the stratum radiatum for field excitatory postsynaptic potentials (fEPSPs), and stratum pyramidale for population spikes. The stimulus strength of the 0.1 ms pulses was adjusted to evoke 30-35% of maximum response for fEPSPs, and 50% of maximal response for population spikes. A stable baseline of responses was established for at least 30 min at 0.033 Hz. Tetanic LTP was induced by high-frequency stimulation in brief trains (100 Hz, 1 s), applied either as a single train or four trains separated by 5 min intervals. A short train consisted of 5 stimuli (100 Hz within-burst). When indicated, ACSF was supplemented with anisomycin (Calbiochem, Calif.), PKRi (Calbiochem, Calif.), bicuculline (Tocris) or diazepam (Sigma-Aldrich). It should be noted that the inventors used bicuculline free base which only blocks GABAA receptor rather than bicuculline-M (bicuculline methiodide, methobromide or methochloride) which in addition to GABAA receptor also blocks small conductance (SK) calcium-activated potassium channels (Debarbieux et al., 1998). […] To reduce day-to-day variations, whenever possible simultaneous recordings (in the same chamber) were obtained from slices from Pkr^−/− mice and WT littermates treated with drugs or vehicle. Statistical analysis was performed using t-test and two-way ANOVA. All data are presented as means±SEM and “n” indicates the number of slices.
# [9] = PKRi 1 μM, −60 mV, kynurenic acid
# [10] = PKRi 1 μM, −60 mV, kynurenic acid 2 mM, TTX 1 μM
# T2 sequence (P19525 whole entry): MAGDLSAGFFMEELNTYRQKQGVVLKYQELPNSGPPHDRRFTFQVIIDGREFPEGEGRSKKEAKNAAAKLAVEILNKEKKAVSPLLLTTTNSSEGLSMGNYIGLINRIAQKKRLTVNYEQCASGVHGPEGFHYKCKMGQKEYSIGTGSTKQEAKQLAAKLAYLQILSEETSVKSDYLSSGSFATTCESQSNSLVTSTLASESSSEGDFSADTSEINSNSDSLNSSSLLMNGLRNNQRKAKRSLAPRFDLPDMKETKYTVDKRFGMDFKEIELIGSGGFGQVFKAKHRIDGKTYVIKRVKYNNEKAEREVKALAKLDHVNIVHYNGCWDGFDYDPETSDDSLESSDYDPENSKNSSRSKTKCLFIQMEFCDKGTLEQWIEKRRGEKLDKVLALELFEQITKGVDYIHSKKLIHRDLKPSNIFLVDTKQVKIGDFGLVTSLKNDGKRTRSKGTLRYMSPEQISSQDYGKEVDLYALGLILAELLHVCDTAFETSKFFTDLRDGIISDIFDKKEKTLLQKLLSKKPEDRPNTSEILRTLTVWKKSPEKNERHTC
smiles,measurement,setting,value
O=C1Nc2ccc3ncsc3c2/C1=C/c1cnc[nH]1 [PKRi],PKR activity in the hippocampus in vivo,PKR [1],known to block PKR activity in the hippocampus in vivo
same,PKR autophosphorylation,PKR [2],blocks
same,Auditory fear memory (freezing 24 hr after training),WT mice,enhanced
same,Contextual fear memory (freezing 24 hr after training),WT mice,enhanced
same,Abnormal EEG activity present (mice affected),"adult WT mice; PKRi 0.1 mg/kg i.p., recorded one hour after injection, absent in all WT controls (n=6), p<0.01",6 out of 7
same,Cortical EEG activity,"adult WT mice; PKRi 0.1 mg/kg, adult WT mice",induces acute spiking (d) and rhythmic bursts (e)
same,Population spikes,[3],no effect
same,Evoked EPSCs,"[4]; PKRi 1 μM bath application, picrotoxin 100 μM, −70 mV",no effect
same,Amplitude of sIPSCs,[4]; [9],not amplitude
same,Frequency of sIPSCs,[4]; [9],decreases
same,Amplitude of mIPSCs,[4]; [10],but not their amplitude
same,Frequency of mIPSCs,[4]; [10],decreased
same,Amplitude of pharmacologically isolated monosynaptic eIPSCs,"[4]; PKRi bath-application, 50 μM APV, 10 μM CNQX, 10 μM CGP55845, 0 mV, half-maximal stimulation",reduced
same,Electrically isolated eIPSCs,"[4]; PKRi, holding potential 0 mV, half-maximal stimulation",Reduced
same,"Amplitude or frequency of sEPSCs, mEPSCs or eEPSCs",[4]; WT slices treated with PKRi,not significantly changed
same,mIPSCs Rise Time 10%-90%,[4]; WT slices treated with PKRi,1.36 ± 0.07 ms
same,mIPSCs τW,[4]; WT slices treated with PKRi,21.28 ± 1.24 ms
same,sIPSCs Rise Time 10%-90%,[4]; WT slices treated with PKRi,1.68 ± 0.18 ms
same,sIPSCs τW,[4]; WT slices treated with PKRi,22.89 ± 0.78 ms
same,Paired-pulse depression of IPSCs (IPSC2/IPSC1),[4]; at 50 ms inter-stimulus interval,reduced
same,LTP after a single high frequency train (100 Hz for 1 s),"WT hippocampal slices; PKRi 1 μM, WT slices, at 220 min p<0.001",converts E-LTP into L-LTP
same,Amplitude of evoked IPSCs,[5],did not alter
same,LTP elicited by a single 100 Hz train (1 s),"[6]; PKRi, Pkr−/− slices",did not further potentiate LTP
same,PKR activity ex-vivo,PKR [7],known to block PKR activity ex-vivo
same,Decrease of CA1 population spike amplitude during short high frequency train (cumulative inhibition),[8]; 5 pulses at 100 Hz,minimal or no high-frequency stimulation-induced decrease in spike amplitude
same,Duration of burst,"[8]; PKRi 1 μM, bicuculline 2 μM",increased
same,Number of evoked spikes,"[8]; PKRi 1 μM, bicuculline 2 μM",increased
same,After-discharges after a single stimulus,"[8]; PKRi 1 μM, in presence of bicuculline 2 μM, half-maximal stimulation at 0.03 Hz",pronounced after-discharges
same,Initial slope of EPSPs,"[8]; PKRi 1 μM, single stimulus",did not alter
same,Presynaptic afferent volley,"[8]; PKRi 1 μM, single stimulus",did not alter
same,Amplitude of population spikes,"[8]; PKRi 1 μM, single stimulus, WT slices",enhanced
same,Population spikes (firing) in slices pre-treated with bicuculline,[8]; WT slices pre-treated with the GABAA antagonist bicuculline,no further enhancement of firing
COc1ccc(C[C@H]2NC[C@H](O)[C@H]2OC(C)=O)cc1 [anisomycin],Facilitated L-LTP after a single train,"[6]; anisomycin, Pkr−/− slices, at 220 min p<0.01",suppressed
CN1C(=O)CN=C(c2ccccc2)c2cc(Cl)ccc21 [diazepam],L-LTP induction by four trains at 100 Hz,WT hippocampal slices,blocked L-LTP induction
same,L-LTP induced by four tetanic trains,"WT hippocampal slices; low concentration of diazepam (11 μM), WT slices",no effect
same,L-LTP after a single train,[6],prevented the induction of L-LTP
